Data reported in PMC5218480 (PLoS ONE, 2017).

System: MV-4-11 cells
Test: Gene expression microarray analysis (Affymetrix PrimeView) and GSEA
Assay type: cell-based, human
Design: RFU PODN (11730768_x_at) / Fold change /veh PODN (11730768_x_at) / RFU LINC00158 (11744669_a_at) / Fold change /veh LINC00158 (11744669_a_at) / RFU DUSP10 (11751237_a_at) / Fold change /veh DUSP10 (11751237_a_at) / RFU ID3 (11757404_x_at) / Fold change /veh ID3 (11757404_x_at) / RFU PLEKHG5 (11737974_s_at) / Fold change /veh PLEKHG5 (11737974_s_at) / RFU LRRC4B (11730491_at) / Fold change /veh LRRC4B (11730491_at) / RFU GIMAP4 (11747438_a_at) / Fold change /veh GIMAP4 (11747438_a_at) / RFU KRT8 (11758183_x_at) / Fold change /veh KRT8 (11758183_x_at) / RFU CNN1 (11734310_a_at) / Fold change /veh CNN1 (11734310_a_at) / RFU VPS37D (11726825_at) / Fold change /veh VPS37D (11726825_at) / RFU C10orf10 (11716522_x_at) / Fold change /veh C10orf10 (11716522_x_at) / RFU KIR2DL2 /// KIR2DL4 /// KIR2DL5A /// KIR2DL5B /// KIR2DS1 /// KIR2DS2 /// KIR2DS3 /// KIR2DS4 /// KIR3DL3 /// KIR3DL3 /// KIR3DS1 (11738374_at) / Fold change /veh KIR2DL2 /// KIR2DL4 /// KIR2DL5A /// KIR2DL5B /// KIR2DS1 /// KIR2DS2 /// KIR2DS3 /// KIR2DS4 /// KIR3DL3 /// KIR3DL3 /// KIR3DS1 (11738374_at) / RFU C1QL1 (11718748_at) / Fold change /veh C1QL1 (11718748_at) / RFU TMPRSS4 (11747572_a_at) / Fold change /veh TMPRSS4 (11747572_a_at) / RFU HAMP (11756126_x_at) / Fold change /veh HAMP (11756126_x_at) / RFU RNFT2 (11725882_a_at) / Fold change /veh RNFT2 (11725882_a_at) / RFU NR4A2 (11747474_a_at) / Fold change /veh NR4A2 (11747474_a_at) / RFU ABCC12 (11746883_a_at) / Fold change /veh ABCC12 (11746883_a_at) / RFU TMEM136 (11760407_x_at) / Fold change /veh TMEM136 (11760407_x_at) / RFU CLDN22 /// WWC2 (11732394_at) / Fold change /veh CLDN22 /// WWC2 (11732394_at) / RFU HLA-DPB1 (11760878_x_at) / Fold change /veh HLA-DPB1 (11760878_x_at) / RFU SPINT1 (11716480_a_at) / Fold change /veh SPINT1 (11716480_a_at) / RFU GAP43 (11754022_s_at) / Fold change /veh GAP43 (11754022_s_at) / RFU A4GNT (11735810_at) / Fold change /veh A4GNT (11735810_at) / RFU PRB3 (11715151_x_at) / Fold change /veh PRB3 (11715151_x_at) / RFU TUBB4B (11761932_at) / Fold change /veh TUBB4B (11761932_at) / RFU CAPN14 (11732068_a_at) / Fold change /veh CAPN14 (11732068_a_at) / RFU TMCC2 (11721928_a_at) / Fold change /veh TMCC2 (11721928_a_at) / RFU IRGQ (11745062_a_at) / Fold change /veh IRGQ (11745062_a_at) / RFU FAM174B (11720279_a_at) / Fold change /veh FAM174B (11720279_a_at) / RFU TMPRSS4 (11748680_a_at) / Fold change /veh TMPRSS4 (11748680_a_at) / RFU FAM212B (11763350_a_at) / Fold change /veh FAM212B (11763350_a_at) / RFU PLEKHG5 (11743358_a_at) / Fold change /veh PLEKHG5 (11743358_a_at) / RFU ZSCAN30 (11745921_a_at) / Fold change /veh ZSCAN30 (11745921_a_at) / RFU CMKLR1 (11741424_a_at) / Fold change /veh CMKLR1 (11741424_a_at) / RFU LOC101060620 /// MAPK8IP1 (11723275_at) / Fold change /veh LOC101060620 /// MAPK8IP1 (11723275_at) / RFU SPTSSB (11747773_x_at) / Fold change /veh SPTSSB (11747773_x_at) / RFU PRSS12 (11739890_at) / Fold change /veh PRSS12 (11739890_at) / RFU BIN1 (11741810_x_at) / Fold change /veh BIN1 (11741810_x_at) / RFU WNT11 (11732464_a_at) / Fold change /veh WNT11 (11732464_a_at) / RFU C10orf10 (11716521_a_at) / Fold change /veh C10orf10 (11716521_a_at) / RFU C5orf56 (11738089_at) / Fold change /veh C5orf56 (11738089_at) / RFU CYB561 (11721691_x_at) / Fold change /veh CYB561 (11721691_x_at) / RFU ANKRD19P (11752326_a_at) / Fold change /veh ANKRD19P (11752326_a_at) / RFU OR2T12 /// OR2T33 /// OR2T8 (11738714_s_at) / Fold change /veh OR2T12 /// OR2T33 /// OR2T8 (11738714_s_at) / RFU VCAN (11748164_a_at) / Fold change /veh VCAN (11748164_a_at) / RFU JSRP1 (11732532_at) / Fold change /veh JSRP1 (11732532_at) / RFU KRTAP10-11 (11738290_x_at) / Fold change /veh KRTAP10-11 (11738290_x_at) / RFU MYO3A (11730013_a_at) / Fold change /veh MYO3A (11730013_a_at) / RFU EBF3 (11725865_a_at) / Fold change /veh EBF3 (11725865_a_at) / RFU CAMK2N1 (11719241_x_at) / Fold change /veh CAMK2N1 (11719241_x_at) / RFU C5orf56 (11738088_a_at) / Fold change /veh C5orf56 (11738088_a_at) / RFU OLFML3 (11715873_a_at) / Fold change /veh OLFML3 (11715873_a_at) / RFU LOC100653217 /// NTM (11731650_a_at) / Fold change /veh LOC100653217 /// NTM (11731650_a_at) / RFU MAPK11 (11762145_a_at) / Fold change /veh MAPK11 (11762145_a_at) / RFU FIZ1 (11724087_x_at) / Fold change /veh FIZ1 (11724087_x_at) / RFU OASL (11726364_x_at) / Fold change /veh OASL (11726364_x_at) / RFU SOX15 (11748057_x_at) / Fold change /veh SOX15 (11748057_x_at) / RFU CD79A (11719716_a_at) / Fold change /veh CD79A (11719716_a_at) / RFU HIST1H1D (11736915_at) / Fold change /veh HIST1H1D (11736915_at) / RFU CASKIN2 (11723855_a_at) / Fold change /veh CASKIN2 (11723855_a_at) / RFU LOC730098 (11760151_x_at) / Fold change /veh LOC730098 (11760151_x_at) / RFU OR4N2 (11742367_at) / Fold change /veh OR4N2 (11742367_at) / RFU PRRT2 (11749266_a_at) / Fold change /veh PRRT2 (11749266_a_at) / RFU SNX32 (11753110_a_at) / Fold change /veh SNX32 (11753110_a_at) / RFU CDHR5 (11726645_a_at) / Fold change /veh CDHR5 (11726645_a_at) / RFU RCAN1 (11760418_a_at) / Fold change /veh RCAN1 (11760418_a_at) / RFU FAM167A (11723789_a_at) / Fold change /veh FAM167A (11723789_a_at) / RFU FAM26E (11764081_at) / Fold change /veh FAM26E (11764081_at) / RFU ISYNA1 (11749810_s_at) / Fold change /veh ISYNA1 (11749810_s_at) / RFU ACY1 (11761880_at) / Fold change /veh ACY1 (11761880_at) / RFU 11764098_at / Fold change /veh 11764098_at / RFU SAMD14 (11745864_x_at) / Fold change /veh SAMD14 (11745864_x_at) / RFU NPB (11741838_a_at) / Fold change /veh NPB (11741838_a_at) / RFU TMPRSS6 (11731388_a_at) / Fold change /veh TMPRSS6 (11731388_a_at) / RFU KRTAP10-2 (11738614_at) / Fold change /veh KRTAP10-2 (11738614_at) / RFU ARHGAP8 /// PRR5-ARHGAP8 (11727945_x_at) / Fold change /veh ARHGAP8 /// PRR5-ARHGAP8 (11727945_x_at) / RFU KRTAP5-7 /// NADSYN1 (11734609_at) / Fold change /veh KRTAP5-7 /// NADSYN1 (11734609_at) / RFU RASL12 (11751679_a_at) / Fold change /veh RASL12 (11751679_a_at) / RFU CDKN2B (11736163_a_at) / Fold change /veh CDKN2B (11736163_a_at) / RFU PRF1 (11729649_at) / Fold change /veh PRF1 (11729649_at) / RFU, ZNF638 /// ZNF638-IT1 / Fold change vs veh, ZNF638 /// ZNF638-IT1 / RFU, PANK3 / Fold change vs veh, PANK3 / RFU, SH3YL1 / Fold change vs veh, SH3YL1 / RFU, ZEB2 / Fold change vs veh, ZEB2 / RFU, NRIP1 / Fold change vs veh, NRIP1 / RFU, PTTG1IP / Fold change vs veh, PTTG1IP / RFU, CAPN2 / Fold change vs veh, CAPN2 / RFU, MED14 / Fold change vs veh, MED14 / RFU, SNORA58 / Fold change vs veh, SNORA58 / RFU, C1orf63 / Fold change vs veh, C1orf63 / RFU, LRRFIP1 / Fold change vs veh, LRRFIP1 / RFU, NDUFAF7 / Fold change vs veh, NDUFAF7 / RFU, SLC12A2 / Fold change vs veh, SLC12A2 / RFU, IBTK / Fold change vs veh, IBTK / RFU, ESF1 / Fold change vs veh, ESF1 / Fold change vs veh, TMEM50B / RFU, TAOK1 / Fold change vs veh, TAOK1 / RFU, ACBD3 / Fold change vs veh, ACBD3 / RFU, TMA16 / Fold change vs veh, TMA16 / RFU, RWDD3 / Fold change vs veh, RWDD3 / RFU, BCAT1 / Fold change vs veh, BCAT1 / RFU, EDEM3 / Fold change vs veh, EDEM3 / RFU, TMEM33 / Fold change vs veh, TMEM33 / RFU, WDR75 / Fold change vs veh, WDR75 / RFU, AHCTF1 / Fold change vs veh, AHCTF1 / RFU, TFRC / Fold change vs veh, TFRC / RFU, ZDHHC17 / Fold change vs veh, ZDHHC17 / RFU, NOM1 / Fold change vs veh, NOM1 / RFU, ARL8B / Fold change vs veh, ARL8B / RFU, ZBTB11 / Fold change vs veh, ZBTB11 / RFU, TAMM41 / Fold change vs veh, TAMM41 / RFU, KIAA1704 /// LOC100996395 / Fold change vs veh, KIAA1704 /// LOC100996395 / RFU, ING1 / Fold change vs veh, ING1 / RFU, TRMT61B / Fold change vs veh, TRMT61B / RFU, FUBP3 / Fold change vs veh, FUBP3 / RFU, TP53 / Fold change vs veh, TP53 / RFU, TNKS2 / Fold change vs veh, TNKS2 / RFU, ZFP14 / Fold change vs veh, ZFP14 / RFU, ACTR2 / Fold change vs veh, ACTR2 / RFU, PPP3R1 / Fold change vs veh, PPP3R1 / RFU, PIK3R1 / Fold change vs veh, PIK3R1 / RFU, HNRNPA1 / Fold change vs veh, HNRNPA1 / RFU, RNF170 / Fold change vs veh, RNF170 / RFU, ZNF28 / Fold change vs veh, ZNF28 / RFU, RNGTT / Fold change vs veh, RNGTT / RFU, OGT / Fold change vs veh, OGT / RFU, BRD1 / Fold change vs veh, BRD1 / RFU, MARS / Fold change vs veh, MARS / RFU, ZNF655 / Fold change vs veh, ZNF655 / RFU, FAHD1 / Fold change vs veh, FAHD1 / RFU, BDP1 / Fold change vs veh, BDP1 / RFU, LRRCC1 / Fold change vs veh, LRRCC1 / RFU, ARID1A / Fold change vs veh, ARID1A / RFU, ZNF146 / Fold change vs veh, ZNF146 / RFU, ZNF330 / Fold change vs veh, ZNF330 / RFU, GPN3 / Fold change vs veh, GPN3 / RFU, C9orf123 / Fold change vs veh, C9orf123 / RFU, N4BP2L2 / Fold change vs veh, N4BP2L2 / RFU, ARFIP1 / Fold change vs veh, ARFIP1 / RFU, FAM179B / Fold change vs veh, FAM179B / RFU, BCL10 / Fold change vs veh, BCL10 / RFU, UHRF1BP1L / Fold change vs veh, UHRF1BP1L / RFU, BET1 / Fold change vs veh, BET1 / RFU, CNOT2 / Fold change vs veh, CNOT2 / RFU, ZNF268 / Fold change vs veh, ZNF268 / Fold change vs veh, ZNF507 / RFU, DGCR2 / Fold change vs veh, DGCR2 / RFU, WDSUB1 / Fold change vs veh, WDSUB1 / Fold change vs veh, HSP90B1 /// MIR3652 / RFU, ADSS / Fold change vs veh, ADSS / RFU, GK / Fold change vs veh, GK / RFU, ZNF148 / Fold change vs veh, ZNF148 / RFU, TAF9 / Fold change vs veh, TAF9 / RFU, SLC1A5 / Fold change vs veh, SLC1A5 / RFU, SLMO2 / Fold change vs veh, SLMO2 / RFU, ABCC4 / Fold change vs veh, ABCC4 / RFU, LOC101060439 /// RAP1B / Fold change vs veh, LOC101060439 /// RAP1B / RFU, RFX7 / Fold change vs veh, RFX7 / RFU, GTPBP10 / Fold change vs veh, GTPBP10 / RFU, CNEP1R1 / Fold change vs veh, CNEP1R1 / RFU, BIVM-ERCC5 /// ERCC5 / Fold change vs veh, BIVM-ERCC5 /// ERCC5 / RFU, ILF3 / Fold change vs veh, ILF3 / RFU 11762660_at / Fold change /veh 11762660_at / RFU VCAN (11757783_s_at) / Fold change /veh VCAN (11757783_s_at) / RFU DDX43 (11728927_at) / Fold change /veh DDX43 (11728927_at) / RFU KRT8 (11758188_x_at) / Fold change /veh KRT8 (11758188_x_at) / RFU NKD1 (11759106_at) / Fold change /veh NKD1 (11759106_at) / RFU SRD5A1 (11742802_a_at) / Fold change /veh SRD5A1 (11742802_a_at) / RFU TPSAB1 /// TPSB2 (11721975_s_at) / Fold change /veh TPSAB1 /// TPSB2 (11721975_s_at) / RFU GSTM3 (11746129_a_at) / Fold change /veh GSTM3 (11746129_a_at) / RFU IL23R (11737362_x_at) / Fold change /veh IL23R (11737362_x_at) / RFU TMEM51 (11727254_a_at) / Fold change /veh TMEM51 (11727254_a_at) / RFU PIWIL2 (11732686_x_at) / Fold change /veh PIWIL2 (11732686_x_at) / RFU ORM1 (11744905_x_at) / Fold change /veh ORM1 (11744905_x_at) / RFU CCDC152 (11743942_at) / Fold change /veh CCDC152 (11743942_at) / RFU ECM1 (11717891_a_at) / Fold change /veh ECM1 (11717891_a_at) / RFU IL23R (11748794_a_at) / Fold change /veh IL23R (11748794_a_at) / RFU TNFAIP8L3 (11732012_x_at) / Fold change /veh TNFAIP8L3 (11732012_x_at) / RFU MBOAT4 (11741988_at) / Fold change /veh MBOAT4 (11741988_at) / RFU 11764193_at / Fold change /veh 11764193_at / RFU TMEM53 (11763286_at) / Fold change /veh TMEM53 (11763286_at) / RFU MAGEB2 (11727129_at) / Fold change /veh MAGEB2 (11727129_at) / RFU TMEM200A (11744735_a_at) / Fold change /veh TMEM200A (11744735_a_at) / RFU CCDC152 (11751479_a_at) / Fold change /veh CCDC152 (11751479_a_at) / RFU FAM211A (11726209_a_at) / Fold change /veh FAM211A (11726209_a_at) / RFU RGS16 (11746705_a_at) / Fold change /veh RGS16 (11746705_a_at) / RFU VCAN (11755009_s_at) / Fold change /veh VCAN (11755009_s_at) / RFU RHOB (11743442_s_at) / Fold change /veh RHOB (11743442_s_at) / RFU RGS16 (11720943_a_at) / Fold change /veh RGS16 (11720943_a_at) / RFU RGS16 (11720944_at) / Fold change /veh RGS16 (11720944_at) / RFU, VPS4B / Fold change vs veh, VPS4B / RFU, CREB1 / Fold change vs veh, CREB1 / RFU, DNAJC13 / Fold change vs veh, DNAJC13 / RFU, GNAQ / Fold change vs veh, GNAQ / RFU, CDK5R1 / Fold change vs veh, CDK5R1 / RFU, ZRANB3 / Fold change vs veh, ZRANB3 / RFU, CUL4A / Fold change vs veh, CUL4A / RFU, CCNY / Fold change vs veh, CCNY / RFU, UFL1 / Fold change vs veh, UFL1 / RFU, COG3 / Fold change vs veh, COG3 / RFU, DIAPH2 / Fold change vs veh, DIAPH2 / RFU, SKA2 / Fold change vs veh, SKA2 / RFU, AFF3 / Fold change vs veh, AFF3 / RFU, LMF1 / Fold change vs veh, LMF1 / RFU, IPO11 / Fold change vs veh, IPO11 / RFU, DFFB / Fold change vs veh, DFFB / RFU, FOXP1 / Fold change vs veh, FOXP1 / RFU, CARD8 / Fold change vs veh, CARD8 / RFU, STRN3 / Fold change vs veh, STRN3 / RFU, ADK / Fold change vs veh, ADK / RFU, RASSF2 / Fold change vs veh, RASSF2 / RFU, WIPF1 / Fold change vs veh, WIPF1 / RFU, LARP1B / Fold change vs veh, LARP1B / RFU, RASA1 / Fold change vs veh, RASA1 / RFU, RB1 / Fold change vs veh, RB1 / RFU, PPFIA1 / Fold change vs veh, PPFIA1 / RFU, MAT2A / Fold change vs veh, MAT2A / RFU, CCT5 / Fold change vs veh, CCT5 / RFU, WDR92 / Fold change vs veh, WDR92 / RFU, CUX1 / Fold change vs veh, CUX1 / RFU, TTC7A / Fold change vs veh, TTC7A / RFU, TMEM135 / Fold change vs veh, TMEM135 / RFU, DEPTOR / Fold change vs veh, DEPTOR / RFU, CPM / Fold change vs veh, CPM / RFU, DNAJB6 / Fold change vs veh, DNAJB6 / RFU, CACNA2D3 / Fold change vs veh, CACNA2D3 / RFU, DTX4 / Fold change vs veh, DTX4 / RFU, TFCP2 / Fold change vs veh, TFCP2 / RFU, GMCL1 /// GMCL1P1 / Fold change vs veh, GMCL1 /// GMCL1P1 / RFU, AEBP2 / Fold change vs veh, AEBP2 / RFU, SNHG1 /// SNORD22 /// SNORD25 /// SNORD26 /// SNORD27 /// SNORD28 /// SNORD29 /// SNORD31 / Fold change vs veh, SNHG1 /// SNORD22 /// SNORD25 /// SNORD26 /// SNORD27 /// SNORD28 /// SNORD29 /// SNORD31 / Fold change (Aza/veh), C12orf56 (ProbeSet 11735607_a_at) / Fold change (ACY-1035/veh), C12orf56 (ProbeSet 11735607_a_at) / Fold change (Aza/veh), FGFR1OP (ProbeSet 11751329_s_at) / Fold change (ACY-1035/veh), FGFR1OP (ProbeSet 11751329_s_at) / Fold change (Aza/veh), VPS36 (ProbeSet 11739960_a_at) / Fold change (ACY-1035/veh), VPS36 (ProbeSet 11739960_a_at) / RFU SYPL1 (11715823_x_at) / Fold change /veh SYPL1 (11715823_x_at) / RFU IGFBP7 (11715501_s_at) / Fold change /veh IGFBP7 (11715501_s_at) / RFU REEP3 (11722064_at) / Fold change /veh REEP3 (11722064_at) / RFU IGLL1 (11728026_x_at) / Fold change /veh IGLL1 (11728026_x_at): dose or concentration left out as unconfirmed
Settings: ProbeSet 11719632_a_at; LIST B

`Nc1ncn([C@@H]2O[C@H](CO)[C@@H](O)[C@H]2O)c(=O)n1` [azacitidine] was tested, and the “Fold change vs veh, ABCC4” value was 0.85.
